{"source": "paper PMC7815716", "about": "“Mechanistic basis of breast cancer resistance protein inhibition by new indeno[1,2-b]indoles” (Scientific Reports, 2021)", "key": {"ABCG2 [1]": {"target": "T1, ABCG2 (Homo sapiens, UniProt Q9UNQ0)", "T1 sequence (Q9UNQ0 1-655)": "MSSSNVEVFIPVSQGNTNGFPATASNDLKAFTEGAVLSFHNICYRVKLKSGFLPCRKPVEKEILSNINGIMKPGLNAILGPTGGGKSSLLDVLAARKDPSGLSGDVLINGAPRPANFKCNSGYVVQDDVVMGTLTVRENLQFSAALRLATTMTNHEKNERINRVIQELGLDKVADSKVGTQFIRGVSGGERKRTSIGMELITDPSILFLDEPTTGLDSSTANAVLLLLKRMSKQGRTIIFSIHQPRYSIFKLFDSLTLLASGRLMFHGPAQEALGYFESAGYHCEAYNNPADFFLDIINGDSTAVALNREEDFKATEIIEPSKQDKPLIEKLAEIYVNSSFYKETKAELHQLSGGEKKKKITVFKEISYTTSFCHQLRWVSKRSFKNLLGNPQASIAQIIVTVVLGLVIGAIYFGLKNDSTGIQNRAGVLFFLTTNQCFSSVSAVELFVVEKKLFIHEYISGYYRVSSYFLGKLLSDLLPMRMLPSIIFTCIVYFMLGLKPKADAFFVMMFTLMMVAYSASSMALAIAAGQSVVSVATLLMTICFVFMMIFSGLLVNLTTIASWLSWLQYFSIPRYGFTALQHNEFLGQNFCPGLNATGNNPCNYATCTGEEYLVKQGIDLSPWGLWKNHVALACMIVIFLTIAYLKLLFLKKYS", "experiment": "Thermostabilization assay (ATPase activity after heating)", "type": "biochemical", "settings": "10 µM, curves with or without ATP", "experimental": "The thermal stability assay was performed according to the published. Total membrane prepared from High Five insect cells overexpressing the ABCG2 at 3 µg protein/tube concentration were incubated with assay buffer composed by 50 mM Tris–HCl, pH 6.8, 150 mM N-methyl-D-glucamine (NMDG)-Cl, 5 mM sodium azide, 1 mM ouabain and 2 mM DTT in the presence or absence of 0.3 mM orthovanadate at final volume of 50 µL. To evaluate the effect of those inhibitors over thermal stability, each sample was prepared with 12.5 mM MgCl2 or 6.25 mM ATP and incubated with a temperature range from 37 to 71 °C for 10 min using a thermocycler C1000 Touch (Bio-Rad, Hercules, CA). After incubation, 10 µL of 25 mM ATP or 50 mM MgCl2 (5 and 10 mM final concentration, respectively) was added and incubated at 37 °C/20 min to allow ATP hydrolysis. The reaction was stopped with the addition of 50 µL of Pi solution containing 1% ammonium molibdate, 2.5 N H2SO4 and 0.014% potassium-antimony tartrate. To evaluate the absorbance, the samples were transferred to a 96 well plate (50 µL/well), added 150 µL of 0.33% sodium ascorbate solution. The absorbance was measured after 15 min incubation at room temperature using the microplate reader Spectramax iD3 (Molecular Devices, San Jose, CA). The sensitive activity to vanadate (Vi) was calculated as the difference between the activity in the absence of Vi minus the activity in the presence of Vi to each temperature."}, "ABCG2 [2]": {"target": "T1, ABCG2", "experiment": "ABCG2 ATPase activity, High-Five insect cell total membranes", "type": "biochemical", "design": "expressed in transfected cells", "experimental": "The ATPase assay was carried out as previously described. High-Five insect cell total membranes overexpressing ABCG2 were used at a concentration of 5 µg protein/tube in a final volume of 100 µL. The membranes were incubated in assay buffer containing 50 mM Tris–HCl, pH 6.8, 150 mM N-methyl-D-glucamine (NMDG)-Cl, 5 mM sodium azide, 1 mM EGTA, 1 mM ouabain, 2 mM DTT, and 10 mM MgCl2, in the presence or absence of sodium orthovanadate (0.3 mM). The protein-buffer mix was treated with the compounds at increasing concentrations (0.001–5 µM) and incubated for 20 min at 37 °C in the presence of ATP (5 mM). The reaction was stopped with the addition of 100 µL of 5% SDS, for color development was added 400 µL of Pi solution (sulfuric acid 36.2 N, water, ammonium molybdate and antimony potassium tartrate) and 200 µL of 1% ascorbic acid. The absorbance was measured after 10 min at 880 nm using a spectrophotometer Ultrospec 3100 pro (Amersham Biosciences).\nTable S2. Effect of indeno[1,2-b]indole derivatives on the ATPase activity of ABCG2.The vanadate-sensitive ATPase activity of ABCG2 was measured using the total membranes of High-Five insect cells expressing this transporter as described previously [S5]. The EC50 (concentration required to achieve 50% stimulation) is given as the concentration ± SD (nM) of three independent experiments in duplicate."}, "HEK293-ABCG2 cells": {"test_system": "HEK293-ABCG2 cells", "experiment": "Sensitization of ABCG2-transfected cells to SN-38, MTT assay", "type": "cell-based, human", "settings": "for Chemosensitization to SN-38: HEK293-ABCG2, 72 h co-treatment, IC50 value or 5 µM; for FR, fold reversal: vs HEK293 WT", "experimental": "Cell viability was evaluated with a 3-(4,5-dimethylthiazol-2-yl)-2,5-diphenyltetrazolium bromide (MTT) colorimetric assay. HEK293 WT and HEK293-ABCG2 cells were seeded into 96-well culture plates at a 1.5 × 10^4 cells/well density. After overnight incubation, the cells were treated with various concentrations of compounds (0–100 µM) for 72 h at 37 °C under 5% CO2. […] Sensitization experiments were also carried out on H460 and H460MX20 cells. For these experiments, H460 and H460MX20 cells were seeded into 96-well culture plates at 1.0 × 10^4 cells/well density. […] After the treatment, the culture medium was removed and 100 μL of a 0.5 mg.mL^−1 MTT solution was added. Cells were then incubated for 4 h at 37 °C under 5% CO2. The formazan crystals were dissolved with a solution of DMSO/ethanol (1:1) and the absorbance was measured at 570 nm using a Multiscan FC microplate reader (Thermo Scientific). The results were expressed as percentage of viable cells versus control cells (0.1% DMSO, v/v) taken as 100%."}, "[3]": {"settings": "HEK293-ABCG2, SN-38 + inhibitor at 5 µM"}, "[4]": {"settings": "HEK293-ABCG2, SN-38 + inhibitor at its IC50 value"}, "[5]": {"settings": "EC50 (nM ± SD) values of stimulation on the ATPase activity of ABCG2, vanadate-sensitive ATPase, High-Five insect cell total membranes"}, "[6]": {"settings": "EC50 of stimulation of ABCG2 ATPase activity, approximate values"}}, "note": "Like-named read-outs stand apart in the source and are kept apart here.", "data": [{"compound": "COc1cc2c(cc1OC)-c1c(c3c(n1CCc1ccccc1)CC(C)CC3=O)C2=O", "note": "(stereo not shown) [5e, 2,3-Dimethoxy-7-methyl-5-phenethyl-5,6,7,8-tetrahydroindeno[1,2-b]indole-9,10-dione]", "values": [{"measurement": "melting point", "value": 235, "unit": "°C"}, {"measurement": "Thermostabilization effect", "setting": "ABCG2 [1]", "value": "moderate effect"}, {"measurement": "EC50", "setting": "ABCG2 [2]; approximate values, read-out: EC50 of stimulation of ABCG2 ATPase activity", "value": "~170", "unit": "nM"}, {"measurement": "EC50", "setting": "ABCG2 [2]; vanadate-sensitive ATPase, High-Five insect cell total membranes, read-out: EC50 (nM ± SD) values of stimulation on the ATPase activity of ABCG2", "value": "170 ± 11", "unit": "nM"}, {"measurement": "Chemosensitization to SN-38", "setting": "HEK293-ABCG2 cells", "value": "efficiently chemosensitize"}, {"measurement": "FR, fold reversal", "setting": "HEK293-ABCG2 cells; [3]", "value": 3.08}, {"measurement": "FR, fold reversal", "setting": "HEK293-ABCG2 cells; [4]", "value": 9.51}]}, {"compound": "COc1ccccc1CCn1c2c(c3c(O)cc(C)cc31)C(=O)c1ccccc1-2", "note": "[6a, 9-Hydroxy-7-methyl-5-(2-methoxyphenethyl)-5H-indeno[1,2-b]indol-10(5H)-one]", "values": [{"measurement": "Thermostabilization effect", "setting": "ABCG2 [1]", "value": "moderate effect"}, {"measurement": "EC50", "setting": "ABCG2 [2]; [5]", "value": "2.9 ± 0.45", "unit": "nM"}, {"measurement": "EC50", "setting": "ABCG2 [2]; [6]", "value": "~3", "unit": "nM"}, {"measurement": "Chemosensitization to SN-38", "setting": "HEK293-ABCG2 cells", "value": "efficiently chemosensitize"}, {"measurement": "FR, fold reversal", "setting": "HEK293-ABCG2 cells; [3]", "value": 0.47}, {"measurement": "FR, fold reversal", "setting": "HEK293-ABCG2 cells; [4]", "value": 0.82}]}, {"compound": "COc1ccc2[nH]cc(CCn3c4c(c5c(O)cccc53)C(=O)c3ccccc3-4)c2c1", "note": "[6c, 9-Hydroxy-5-(2-(5-methoxy-1H-indol-3-yl)ethyl)indeno[1,2-b]indol-10(5H)-one]", "values": [{"measurement": "melting point", "value": 95, "unit": "°C"}, {"measurement": "Thermostabilization effect", "setting": "ABCG2 [1]", "value": "most pronounced effect"}, {"measurement": "EC50", "setting": "ABCG2 [2]; [5]", "value": "4.4 ± 0.71", "unit": "nM"}, {"measurement": "EC50", "setting": "ABCG2 [2]; [6]", "value": "~3", "unit": "nM"}, {"measurement": "FR, fold reversal", "setting": "HEK293-ABCG2 cells; [3]", "value": 0.37}, {"measurement": "FR, fold reversal", "setting": "HEK293-ABCG2 cells; [4]", "value": 1.13}]}, {"compound": "COc1cccc(CCn2c3c(c4c(O)cccc42)C(=O)c2ccc(O)cc2-3)c1", "note": "[6d, 3,9-Dihydroxy-5-(3-methoxyphenethyl)indeno[1,2-b]indol-10(5H)-one]", "values": [{"measurement": "melting point", "value": 198, "unit": "°C"}, {"measurement": "Thermostabilization effect", "setting": "ABCG2 [1]", "value": "most pronounced effect"}, {"measurement": "EC50", "setting": "ABCG2 [2]; [5]", "value": "3.2 ± 0.44", "unit": "nM"}, {"measurement": "EC50", "setting": "ABCG2 [2]; [6]", "value": "~3", "unit": "nM"}, {"measurement": "FR, fold reversal", "setting": "HEK293-ABCG2 cells; [3]", "value": 0.64}, {"measurement": "FR, fold reversal", "setting": "HEK293-ABCG2 cells; [4]", "value": 12.48}]}]}
